From US7615244B2, “Glycopeptide and peptide having a kokumi taste imparting function, and method of imparting the kokumi taste to foods” (Ajinomoto Co., Inc., priority 2003, dated 2009)
Marks after values point to notes of the source that are not given here.

Tests used:
[1] = Organoleptic evaluation of beef extract solution, paired comparison test; design: key to Kokumi taste vs control (mark): Δ: Equal or inferior in the kokumi taste to the control; O: Stronger in the kokumi taste than the control; OO: Remarkably stronger in the kokumi taste than the control; settings: for Kokumi taste vs control (mark): 14 panelists
Protocol: In order to verify a taste improving function for a commercially available beef extract (manufactured by Bordon), the three glycopeptides and peptide were each added in an amount of 10 ppb by weight to a beef extract solution formulated according to the mixing ratio shown in the following Table 6, and then an organoleptic evaluation was performed in the same manner as in Example 1. Each resulting solution was subjected to organoleptic evaluation by 16 taste panelists according to a paired comparison test, using the non-added beef extract solution as the control. […]
In order to verify a taste improving function for a commercially available beef extract (manufactured by Bordon) in the same manner as in the organoleptic evaluation of Example 1, the glycopeptides and peptides listed in the following Table 15, were each added in an amount of 10 ppb, 1 ppm, or 100 ppm by weight to beef extract solutions formulated according to the mixing ratio shown in Table 6 above. Each resulting solution was subjected to organoleptic evaluation by 14 taste panelists according to a paired comparison test, using the non-added beef extract solution as the control.

[2] = Organoleptic evaluation of Mentsuyu, paired comparison test; settings: added 1 ppb by weight; vs non-added; n = 16
Description: In order to verify a taste improving function for “Mentsuyu” (a soup for Japanese noodle) in the same manner as in the organoleptic evaluation of Example 1, the three glycopeptides and peptide were each added in an amount of 1 ppb by weight to Mentsuyu prepared according to the formulation shown in the following Table 2. Each resulting solution was subjected to organoleptic evaluation by 16 taste panelists according to a paired comparison test, using non-added Mentsuyu as the control.
In order to verify the taste improving function of a liquid comprising enzymatically decomposed wheat gluten, that is, a seasoning containing the three glycopeptides and peptide, for Mentsuyu, the seasoning comprising enzymatically decomposed wheat gluten (that is, the decolorized liquid of Example 1 from which the activated carbon had been removed) was added in an amount of 0.1% by volume to Mentsuyu prepared according to the formulation shown in Table 2, and then an organoleptic evaluation was performed in the same manner as in Example 1. Organoleptic evaluation was carried out by 20 taste panelists according to a paired comparison test, using the non-added Mentsuyu as the control.

[3] = Organoleptic evaluation of cheese sauce, paired comparison test; settings: added 1 ppm by weight; vs non-added; n = 14
Protocol: In order to verify a taste improving function for cheese sauce, the three glycopeptides and peptide were each added in an amount of 1 ppm by weight to a cheese sauce prepared according to the formulation shown in the following Table 4, and then an organoleptic evaluation was performed in the same manner as in Example 1. Each of the sauces added with one of the three glycopeptides and peptide was subjected to organoleptic evaluation by 14 taste panelists according to a paired comparison test, using non-added cheese sauce as the control.
In order to verify the taste improving function of the liquid comprising enzymatically decomposed wheat gluten, that is, a seasoning containing the three glycopeptides and peptide, for cheese sauce, the seasoning comprising enzymatically decomposed wheat gluten (that is, the powdered seasoning of Example 1 formed from the decolorized liquid from which the activated carbon had been removed) was added in an amount of 0.05% by weight to a cheese sauce prepared according to the formulation shown in Table 4, and then an organoleptic evaluation was performed in the same manner as in Example 1. Organoleptic evaluation was carried out by 20 taste panelists according to a paired comparison test, using the non-added cheese sauce as the control.

[4] = Organoleptic evaluation of chicken consommé soup, paired comparison test by taste panelists; settings: for Panelists choosing the sample as the one with a stronger kokumi taste: vs non-added soup, n = 16
Protocol: 2 g of a commercially available chicken consommé soup (manufactured by Ajinomoto Co., Inc.) was added to 100 mL of water to prepare a chicken consommé soup, and then each of the fractions was added to the chicken consommé soup. […] These two fractions were each again fractionated by reversed phase HPLC (“Carbon-500” manufactured by Tosoh Corporation). The following conditions were used to obtain two peaks at 44.8 minutes and 46.6 minutes. For the fractionation, two solvents A and B were used. Solvent A was a 0.05% by volume trifluoroacetic acid (TFA) aqueous solution, and Solvent B was a 0.05% by volume TFA 50% by volume acetonitrile aqueous solution. The column was equilibrated with Solvent A. After injecting a sample, the proportion of Solvent B was increased linearly to 100% in 167 min. The fractionated two peaks were analyzed with an LC-MS/MS (liquid chromatography-tandem mass spectrometry), to confirm that the former peak had fragments, that is, [M+H]^+=m/z 1640, 1494, 1478, 1362, 1332, 1316, 1200, 1184, 1038, 876, 819, 673, and 470, and that the latter peak had fragments, that is, [M+H]^+=m/z 1478, 1346, 1332, 1316, 1200, 1184, 1038, 876, 819, 673, and 470. Further, the former and latter peaks were analyzed by some known methods of analysis such as NMR, a peptide sequencer, an enzymatic decomposition treatment, and the like (R.Takahashi, “Biochemical Experiment Methods 23: Method for Studying Glycoprotein Sugar Chain,” published by Gakkai Shuppan Center, 1989), to confirm that the peaks were due to the glycopeptides having the structures represented by Sequence formulas (I) (SEQ ID NO: 1) and (II) (SEQ ID NO: 1), respectively.
In order to confirm the kokumi taste imparting function and the threshold value of the glycopeptides and the peptide represented by Sequence formulas (I) to (III) (SEQ ID NO: 1) (hereinafter, the glycopeptides and the peptide represented by Sequence formulas (I) to (III) may also be referred to as Glycopeptide I, Glycopeptide II, and Peptide III, respectively), Glycopeptide I and Glycopeptide II were each added to a chicken consommé soup in such that the concentration thereof would be 0.1 ppb to 1.0 ppm by weight upon eating, and Peptide III was added to the chicken consommé soup in such that the concentration thereof would be 0.1 ppb to 100 ppm by weight upon eating. As a control, a non-added chicken consommé soup was prepared. For each of the three glycopeptides and peptide, organoleptic evaluation was carried out by 16 taste panelists according to a paired comparison test (the panelists should choose one with a stronger kokumi taste). In the above organoleptic evaluation, there was a significant difference in the effect caused by adding Glycopeptide I or II or Peptide III in the case where the concentration thereof was 1 ppb by weight or more upon eating. Therefore, the lower limit of the threshold value was set to 1 ppb by weight.

Substance: Asn-His
- Kokumi taste vs control (mark) ([1]; added 1 ppm by weight): ◯
- Kokumi taste vs control (mark) ([1]; added 10 ppb by weight): ◯
- Kokumi taste vs control (mark) ([1]; added 100 ppm by weight): ◯◯

Substance: Asn-His-Thr
- Kokumi taste vs control (mark) ([1]; added 1 ppm by weight): ◯◯
- Kokumi taste vs control (mark) ([1]; added 10 ppb by weight): ◯
- Kokumi taste vs control (mark) ([1]; added 100 ppm by weight): ◯◯

Substance: His-Ser [reference compound]
- Kokumi taste vs control (mark) ([1]; added 1 ppm by weight): Δ
- Kokumi taste vs control (mark) ([1]; added 10 ppb by weight): Δ
- Kokumi taste vs control (mark) ([1]; added 100 ppm by weight): Δ

Substance: Val-Asn [reference compound]
- Kokumi taste vs control (mark) ([1]; added 1 ppm by weight): Δ
- Kokumi taste vs control (mark) ([1]; added 10 ppb by weight): Δ
- Kokumi taste vs control (mark) ([1]; added 100 ppm by weight): Δ

Substance: Val-Asn-His
- Kokumi taste vs control (mark) ([1]; added 1 ppm by weight): ◯◯
- Kokumi taste vs control (mark) ([1]; added 10 ppb by weight): ◯
- Kokumi taste vs control (mark) ([1]; added 100 ppm by weight): ◯◯

Substance: Val-Asn-His-Thr (VNHT; printed: Val-Asn-His-Thr) [Peptide III]
- Stronger kokumi taste (panelists) [2]: 13*
- Stronger kokumi taste (panelists) [3]: 12*
- Panelists choosing the sample as the one with a stronger kokumi taste ([4]; amount added 0.1 ppb): 9
- Panelists choosing the sample as the one with a stronger kokumi taste ([4]; amount added 1.0 ppb): 13*
- Panelists choosing the sample as the one with a stronger kokumi taste ([4]; amount added 1.0 ppm): 16***
- Panelists choosing the sample as the one with a stronger kokumi taste ([4]; amount added 10 ppb): 14**
- Panelists choosing the sample as the one with a stronger kokumi taste ([4]; amount added 100 ppm): 16***
- Lower limit of the threshold value (kokumi taste imparting function) ([4]; concentration upon eating giving a significant difference vs non-added soup): 1 ppb by weight
- Kokumi taste vs control (mark) ([1]; added 1 ppm by weight): ◯◯
- Kokumi taste vs control (mark) ([1]; added 10 ppb by weight): ◯◯
- Stronger kokumi taste (panelists) ([1]; added 10 ppb by weight, vs non-added, n = 16): 13*
- Kokumi taste vs control (mark) ([1]; added 100 ppm by weight): ◯◯

Substance: Val-Gln [reference compound]
- Kokumi taste vs control (mark) ([1]; added 1 ppm by weight): Δ
- Kokumi taste vs control (mark) ([1]; added 10 ppb by weight): Δ
- Kokumi taste vs control (mark) ([1]; added 100 ppm by weight): Δ
